The source of these data is US20040077580A1, “Antisense modulation of PI3K P85 Expression” (priority 2000, published 2004).

Strand notation (5' to 3'): a small letter for the sugar, then the base; units joined by * are phosphorothioate-linked, units joined directly phosphodiester-linked; [ ] holds rarer units or linkages, { } end groups; capitals alone tell only the bases. e = 2'-O-(2-methoxyethyl) (MOE); [5mC] = 5-methylcytosine; d = 2'-deoxy (DNA)

For the first data set, the system named is human PI3K p85 RNA. Briefly: Inhibition of human PI3K p85 mRNA levels by antisense oligonucleotides, real-time quantitative PCR. It counts as cell-based. The note with it: chimeric phosphorothioate oligonucleotides with 2′-MOE wings and deoxy gap, oligonucleotide 150 nM, averaged from two experiments. How it is done:
Cells were harvested 16 hours after oligonucleotide treatment.
Poly(A)+ mRNA was isolated according to Miura et al., Clin. Chem., 1996, 42, 1758-1764. Other methods for poly(A)+ mRNA isolation are taught in, for example, Ausubel, F. M. et al., Current Protocols in Molecular Biology, Volume 1, pp. 4.5.1-4.5.3, John Wiley & Sons, Inc., 1993. […] 60 μL lysis buffer (10 mM Tris-HCl, pH 7.6, 1 mM EDTA, 0.5 M NaCl, 0.5% NP-40, 20 mM vanadyl-ribonucleoside complex) was added to each well, the plate was gently agitated and then incubated at room temperature for five minutes. 55 μL of lysate was transferred to Oligo d(T) coated 96-well plates (AGCT Inc., Irvine Calif.). Plates were incubated for 60 minutes at room temperature, washed 3 times with 200 μL of wash buffer (10 mM Tris-HCl pH 7.6, 1 mM EDTA, 0.3 M NaCl). After the final wash, the plate was blotted on paper towels to remove excess wash buffer and then air-dried for 5 minutes. 60 μL of elution buffer (5 mM Tris-HCl pH 7.6), preheated to 70° C. was added to each well, the plate was incubated on a 90° C. hot plate for 5 minutes, and the eluate was then transferred to a fresh 96-well plate.
PI3K p85 probes and primers were designed to hybridize to the human PI3K p85 sequence, using published sequence information (GenBank accession number M61906, incorporated herein as SEQ ID NO: 1).
Target sites are indicated by nucleotide numbers, as given in the sequence source reference (Genbank accession no. M61906), to which the oligonucleotide binds. All compounds in Table 1 are oligodeoxynucleotides with phosphorothioate backbones (internucleoside linkages) throughout. […] Data are averages from two experiments. If present, “N.D.” indicates “no data”.
In accordance with the present invention, a second series of oligonucleotides targeted to human PI3K p85 were synthesized. Target sites are indicated by nucleotide numbers, as given in the sequence source reference (Genbank accession no. M61906), to which the oligonucleotide binds.
Cytidine residues in the 2′-MOE wings are 5-methylcytidines.
Data were obtained by real-time quantitative PCR as described in other examples herein and are averaged from two experiments. If present, “N.D.” indicates “no data”.
Regarding “28048 (antisense e[5mC]*eT*eG*e[5mC]*dC*dT*dC*dT*dC*dT*dC*dT*dC*dC*eT*e[5mC]*e[5mC]*eG) [compound 28048]”, the “% Inhibition of PI3K p85 mRNA levels” value is reported as 0%.

On to “28019 (antisense eT*eT*e[5mC]*eA*dA*dT*dG*dG*dC*dT*dT*dC*dC*dA*e[5mC]*eG*eA*eG) [compound 28019]”, for which the “% Inhibition of PI3K p85 mRNA levels” value came to 6%.

“28052 (antisense eA*eT*eT*e[5mC]*dT*dC*dC*dC*dA*dA*dA*dG*dC*dG*eT*e[5mC]*e[5mC]*e[5mC]) [compound 28052]”: the “% Inhibition of PI3K p85 mRNA levels” value was found to be 55%.

“28040 (antisense e[5mC]*e[5mC]*eT*eG*dT*dT*dT*dA*dC*dT*dG*dC*dT*dC*eT*e[5mC]*e[5mC]*e[5mC]) [compound 28040]”: the “% Inhibition of PI3K p85 mRNA levels” value was 0%.

As for “28047 (antisense eA*eA*eA*eG*dA*dA*dG*dG*dG*dA*dT*dA*dA*dG*e[5mC]*eA*e[5mC]*eT) [compound 28047]”, the “% Inhibition of PI3K p85 mRNA levels” value turned out to be 18%.

For “28050 (antisense eT*eG*eT*e[5mC]*dT*dG*dG*dG*dT*dC*dC*dA*dC*dC*eG*eT*eG*e[5mC]) [compound 28050]”, the “% Inhibition of PI3K p85 mRNA levels” value is 57%.

On to “28036 (antisense eT*e[5mC]*eA*eA*dC*dT*dT*dC*dT*dT*dT*dT*dG*dC*e[5mC]*eG*eA*eA) [compound 28036]”, for which the “% Inhibition of PI3K p85 mRNA levels” value amounted to 59%.

Turning to “28045 (antisense eG*e[5mC]*e[5mC]*e[5mC]*dT*dT*dT*dG*dC*dT*dT*dT*dC*dC*eA*eG*eA*eG) [compound 28045]”, the “% Inhibition of PI3K p85 mRNA levels” value came to 0%.

“28027 (antisense eT*eT*eA*eT*dT*dC*dA*dT*dA*dC*dC*dG*dT*dT*eG*eT*eT*eG) [compound 28027]”: the “% Inhibition of PI3K p85 mRNA levels” value is 45%.

As to “28046 (antisense eA*eT*e[5mC]*eA*dG*dA*dC*dT*dG*dG*dA*dG*dA*dG*eG*eA*eG*e[5mC]) [compound 28046]”, the “% Inhibition of PI3K p85 mRNA levels” value turned out to be 32%.

“28032 (antisense eT*eT*eT*e[5mC]*dT*dC*dA*dT*dT*dG*dC*dC*dT*dT*e[5mC]*eA*e[5mC]*eG) [compound 28032]”: the “% Inhibition of PI3K p85 mRNA levels” value is listed as 35%.

With “28049 (antisense e[5mC]*e[5mC]*eA*eG*dG*dC*dT*dA*dA*dA*dC*dC*dA*dG*eG*e[5mC]*eT*eG) [compound 28049]”, the “% Inhibition of PI3K p85 mRNA levels” value worked out at 24%.

As to “28041 (antisense e[5mC]*e[5mC]*eA*e[5mC]*dC*dA*dC*dT*dA*dC*dA*dG*dA*dG*e[5mC]*eA*eG*eG) [compound 28041]”, the “% Inhibition of PI3K p85 mRNA levels” value stood at 38%.

Consider “28056 (antisense e[5mC]*e[5mC]*eA*eA*dC*dA*dA*dA*dA*dC*dA*dG*dT*dC*e[5mC]*eA*eA*eA) [compound 28056]”, for which the “% Inhibition of PI3K p85 mRNA levels” value was determined as 15%.

As for “28029 (antisense eA*e[5mC]*e[5mC]*eA*dC*dA*dG*dA*dA*dC*dT*dG*dA*dA*eG*eG*eT*eT) [compound 28029]”, the “% Inhibition of PI3K p85 mRNA levels” value is 57%.

In the case of “28054 (antisense e[5mC]*e[5mC]*eT*eT*dC*dA*dG*dC*dA*dA*dA*dA*dC*dA*eA*eA*eA*e[5mC]) [compound 28054]”, the “% Inhibition of PI3K p85 mRNA levels” value is recorded as 0%.

For the substance “28035 (antisense eA*eT*eT*eG*dG*dT*dC*dT*dC*dT*dC*dG*dT*dC*eT*eT*eT*e[5mC]) [compound 28035]”, the “% Inhibition of PI3K p85 mRNA levels” value turned out to be 0%.

On to “28021 (antisense eG*eT*eA*eA*dG*dT*dC*dC*dA*dG*dG*dA*dG*dA*eT*eA*eG*e[5mC]) [compound 28021]”, for which the “% Inhibition of PI3K p85 mRNA levels” value came to 43%.

For the substance “28025 (antisense eG*eT*eT*e[5mC]*dA*dT*dT*dC*dC*dA*dT*dT*dC*dA*eG*eT*eT*eG) [compound 28025]”, the “% Inhibition of PI3K p85 mRNA levels” value was 22%.

The same data set, now with this note: phosphorothioate oligodeoxynucleotides, oligonucleotide 150 nM, averages from two experiments.
As for “27984 (antisense GGCTGCTGAGAATCTGAA; DNA, all phosphorothioate, methylation of C not given here) [compound 27984]”, the “% Inhibition of PI3K p85 mRNA levels” value is on record as 22%.

For the substance “28005 (antisense GCCCTTTGCTTTCCAGAG; DNA, all phosphorothioate, methylation of C not given here) [compound 28005]”, the “% Inhibition of PI3K p85 mRNA levels” value is 0%.

“27996 (antisense TCAACTTCTTTTGCCGAA; DNA, all phosphorothioate, methylation of C not given here) [compound 27996]”: the “% Inhibition of PI3K p85 mRNA levels” value was found to be 38%.

With “27977 (antisense ATCTTCTTCTCTTTCCTT; DNA, all phosphorothioate, methylation of C not given here) [compound 27977]”, the “% Inhibition of PI3K p85 mRNA levels” value was determined as 0%.

On to “27991 (antisense CCGCTCTTGGGTCTGGCA; DNA, all phosphorothioate, methylation of C not given here) [compound 27991]”, for which the “% Inhibition of PI3K p85 mRNA levels” value is listed as 71%.

Consider “27993 (antisense ATCCTTTGTATTTCTTTC; DNA, all phosphorothioate, methylation of C not given here) [compound 27993]”, for which the “% Inhibition of PI3K p85 mRNA levels” value is reported as 15%.

As for “27979 (antisense TTCAATGGCTTCCACGAG; DNA, all phosphorothioate, methylation of C not given here) [compound 27979]”, the “% Inhibition of PI3K p85 mRNA levels” value was 6%.

For “28003 (antisense AAAGCCATAGCCAGTTGC; DNA, all phosphorothioate, methylation of C not given here) [compound 28003]”, the “% Inhibition of PI3K p85 mRNA levels” value is given as 0%.

In the case of “27986 (antisense dA*dG*dT*dA*dG*dG*dT*dT*dT*dT*dG*dG*dT*dG*dG*dT*dT*dT) [compound 27986]”, the “% Inhibition of PI3K p85 mRNA levels” value is on record as 0%.

Consider “28006 (antisense ATCAGACTGGAGAGGAGC; DNA, all phosphorothioate, methylation of C not given here) [compound 28006]”, for which the “% Inhibition of PI3K p85 mRNA levels” value is listed as 27%.

Take “28016 (antisense CCAACAAAACAGTCCAAA; DNA, all phosphorothioate, methylation of C not given here) [compound 28016]”: the “% Inhibition of PI3K p85 mRNA levels” value is 6%.

For “27994 (antisense TTCAAGTCTTCTTCCAAT; DNA, all phosphorothioate, methylation of C not given here) [compound 27994]”, the “% Inhibition of PI3K p85 mRNA levels” value was 15%.

On to “27989 (antisense ACCACAGAACTGAAGGTT; DNA, all phosphorothioate, methylation of C not given here) [compound 27989]”, for which the “% Inhibition of PI3K p85 mRNA levels” value amounted to 0%.

Turning to “27997 (antisense TTGCCCAACCACTCGTTC; DNA, all phosphorothioate, methylation of C not given here) [compound 27997]”, the “% Inhibition of PI3K p85 mRNA levels” value came to 55%.

“28000 (antisense CCTGTTTACTGCTCTCCC; DNA, all phosphorothioate, methylation of C not given here) [compound 28000]”: the “% Inhibition of PI3K p85 mRNA levels” value came out at 20%.

Take “27980 (antisense AATTCTGCCAGGTTGCTG; DNA, all phosphorothioate, methylation of C not given here) [compound 27980]”: the “% Inhibition of PI3K p85 mRNA levels” value was determined as 0%.

Take “27987 (antisense TTATTCATACCGTTGTTG; DNA, all phosphorothioate, methylation of C not given here) [compound 27987]”: the “% Inhibition of PI3K p85 mRNA levels” value is recorded as 4%.

Regarding “27978 (antisense GCTTCCTGTCCATCACTG; DNA, all phosphorothioate, methylation of C not given here) [compound 27978]”, the “% Inhibition of PI3K p85 mRNA levels” value is reported as 29%.

Turning to “28007 (antisense AAAGAAGGGATAAGCACT; DNA, all phosphorothioate, methylation of C not given here) [compound 28007]”, the “% Inhibition of PI3K p85 mRNA levels” value is on record as 7%.

On to “27983 (antisense GCTTGAAGAAATGTTTTA; DNA, all phosphorothioate, methylation of C not given here) [compound 27983]”, for which the “% Inhibition of PI3K p85 mRNA levels” value worked out at 0%.
